Laboratory results published in article PMC4829572, “Purification and characterization of endo β-1,4-D-glucanase from Trichoderma harzianum strain HZN11 and its application in production of bioethanol from sweet sorghum bagasse” (3 Biotech, 2016).

Target: T1, endo β-1,4-D-glucanase
T1 construct: gene egl1; native secreted enzyme purified from solid state culture (ammonium sulfate, DEAE-Sepharose, Sephadex G-100); ~55 kDa on SDS-PAGE, monomer
Assay: inhibition of CMC hydrolysis, DNS reducing sugar assay, Lineweaver-Burk plot
Format: biochemical, Trichoderma harzianum
Details: competitive; substrate carboxymethyl cellulose; cellobiose 5 and 10 mM
Source text: inhibition of CMC hydrolysis, DNS reducing sugar assay, Lineweaver-Burk plot on endo β-1,4-D-glucanase | cellobiose to be competitive inhibitor of endo β-1,4-D-glucanase in the presence of CMC substrate

Ki: 66 mM
SMILES: OC[C@H]1O[C@@H](O[C@H]2[C@H](O)[C@@H](O)C(O)O[C@@H]2CO)[C@H](O)[C@@H](O)[C@@H]1O (stereo partly shown) [cellobiose]
